# Experimental data: patent US7348425B2, “Inhibitors of HCV replication” (Bristol-Myers Squibb Company, priority 2004, dated 2008)
# Target: T1, HCV NS5B RdRp genotype 1b (Hepatitis C virus genotype 1b, UniProt Q9WMX2)
# T1 construct: The protein was expressed with an 18 amino acid C-terminal truncation to enhance the solubility; made in house; host or cells: E. coli BL21 (DE3), pET21a
# Experiment: Modified HCV NS5B RdRp enzyme assay (with preincubation)
# Type: biochemical
# Conditions: modified method (with preincubation)
# How it was run: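 Seven-point IC50s were derived from SPA-based ³H-UTP incorporation after 4 h at 30 °C (Hepes pH 7.5, 2% DMSO). Compound was first mixed with 14 nM Δ18 NS5B genotype 1b enzyme. Then 0.2 nM polyA, 0.29 μM UTP and bead-bound oligo-dT12 (20 nM) were added.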
# T1 sequence (Q9WMX2 2420-2992): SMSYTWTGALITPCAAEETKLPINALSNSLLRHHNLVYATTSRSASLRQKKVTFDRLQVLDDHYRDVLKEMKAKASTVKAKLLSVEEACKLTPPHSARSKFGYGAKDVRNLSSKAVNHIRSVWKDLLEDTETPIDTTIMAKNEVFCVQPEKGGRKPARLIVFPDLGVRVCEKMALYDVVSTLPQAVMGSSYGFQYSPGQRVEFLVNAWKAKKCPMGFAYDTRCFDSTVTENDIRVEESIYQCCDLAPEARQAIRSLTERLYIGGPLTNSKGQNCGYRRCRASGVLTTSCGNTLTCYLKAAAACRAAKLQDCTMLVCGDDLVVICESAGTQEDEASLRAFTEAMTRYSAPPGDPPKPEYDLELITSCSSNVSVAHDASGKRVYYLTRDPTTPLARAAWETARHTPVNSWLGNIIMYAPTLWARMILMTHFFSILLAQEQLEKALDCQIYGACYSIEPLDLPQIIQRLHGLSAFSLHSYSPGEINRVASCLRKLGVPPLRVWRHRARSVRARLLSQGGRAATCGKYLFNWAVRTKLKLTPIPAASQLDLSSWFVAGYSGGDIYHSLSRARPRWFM
row,SMILES,IC50 [nM]
1,COC(=O)c1ccc2c(C3CCCCC3)c3n(c2c1)CNc1ccccc1-3,> 1000
2,O=C(O)/C=C/c1ccc2[nH]c(C3(NC(=O)c4ccc5c(C6CCCCC6)c6c7ccccc7ncn6c5c4)CCCC3)nc2c1,20 to 1000
3,COC(=O)c1ccc2c(C3CCCCC3)c3n(c2c1)CC(C(=O)N1CCOCC1)=Cc1ccncc1-3,> 1000
4,COC(=O)c1ccc2c(C3CCCCC3)c3n(c2c1)CC(C(=O)OCc1ccccc1)=Cc1ccccc1-3 [drawing 223],> 1000
5,O=C(O)c1ccc2c(C3CCCCC3)c3n(c2c1)CC(C(=O)N1CCOCC1)Cc1cccnc1-3 (stereo not shown),20 to 1000
6,COC(=O)c1ccc2c(C3CCCCC3)c3n(c2c1)CC(C(=O)N1CCCOCC1)=Cc1ccccc1-3,> 1000
7,COC(=O)c1ccc2c(C3CCCCC3)c3n(c2c1)C(O)c1cc(Cl)ccc1-3 (stereo not shown),> 1000
8,CC(=O)N1CCn2c(c(C3CCCCC3)c3ccc(C(=O)NS(=O)(=O)N(C)C)cc32)-c2ccccc21,20 to 1000
9,CCN(CC)C(=O)C1=Cc2ccccc2-c2c(C3CCCCC3)c3ccc(C(=O)NS(=O)(=O)N(C)C)cc3n2C1,20 to 1000
10,O=C(O)c1ccc2c(C3CCCCC3)c3n(c2c1)CCCc1ocnc1-3,> 1000
11,C[C@@H]1CN(C(=O)C2=Cc3ccccc3-c3c(C4CCCCC4)c4ccc(C(=O)NS(=O)(=O)N(C)C)cc4n3C2)C[C@H](C)O1,20 to 1000
12,N#CC1C(=O)Cn2c(c(C3CCCCC3)c3ccc(C(=O)O)cc32)-c2ccccc21 (stereo not shown),20 to 1000

# Same assay, conditions: preincubation protocol
row,SMILES,IC50 [nM]
1,COC(=O)c1ccc2c(C3CCCCC3)c3n(c2c1)C(O)c1cc(OCc2ccccc2)ccc1-3 (stereo not shown),1000 to 10000
2,COc1ccc2c(c1)CC(C(=O)N(C)CCO)Cn1c-2c(C2CCCCC2)c2ccc(C(=O)NS(=O)(=O)N(C)C)cc21 (stereo not shown),10 to 1000
3,COc1cccc2c1C=C(C(=O)N1C[C@@H](C)O[C@@H](C)C1)Cn1c-2c(C2CCCCC2)c2ccc(C(=O)O)cc21,10 to 1000
4,CNS(=O)(=O)NC(=O)c1ccc2c(C3CCCCC3)c3n(c2c1)CC(C(=O)N1C[C@@H](C)O[C@@H](C)C1)Cc1ccccc1-3 (stereo partly shown),10 to 1000
5,CNCCNC(=O)c1ccc2c(C3CCCCC3)c3n(c2c1)CC(C(=O)N1C[C@@H](C)O[C@@H](C)C1)=Cc1ccccc1-3,10 to 1000
6,COC(=O)c1ccc2c(C3CCCCC3)c3n(c2c1)CC(CO)=Cc1ccccc1-3,> 1000
7,C[C@@H]1CN(C(=O)C2=Cc3ccccc3-c3c(C4CCCCC4)c4ccc(C(=O)NC5(C(=O)Nc6ncc(-c7ccc(C(=O)O)cc7)s6)CCCC5)cc4n3C2)C[C@H](C)O1,10 to 1000
8,COc1ccc2c(c1)CC(C(=O)N1C[C@@H](C)N[C@@H](C)C1)Cn1c-2c(C2CCCCC2)c2ccc(C(=O)NS(=O)(=O)N(C)C)cc21 (stereo partly shown),10 to 1000
9,COc1ccc2c(c1)C=C(C(=O)N(C)CCO)Cn1c-2c(C2CCCCC2)c2ccc(C(=O)NS(=O)(=O)N(C)C)cc21,< 20
10,COc1ccc2c(c1)C=C(C(=O)N1CCOCC1)Cn1c-2c(C2CCCCC2)c2ccc(C(=O)NS(=O)(=O)C3CC3)cc21,10 to 1000
11,COC(=O)c1ccc2c(C3CCCCC3)c3n(c2c1)CC(C(=O)N1C[C@@H](C)O[C@@H](C)C1)=Cc1cc(F)ccc1-3,> 1000

# System: HCV replicon
# Experiment: HCV replicon FRET assay
# Type: cell-based
# Conditions: Hepatitis C virus; FRET assay; read-out: EC50
# How it was run: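 Replicon cells (± Renilla luciferase reporter) incubated with titrated compound at 37 °C; NS3 protease activity read by FRET peptide cleavage (20 uM EDANS/DABCYL substrate, 340/490 nm kinetic) or luciferase.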
row,SMILES,EC50 [nM]
1,COC(=O)c1ccc2c(C3CCCCC3)c3n(c2c1)C(O)c1cc(OCc2ccccc2)ccc1-3 (stereo not shown),> 100
2,COc1ccc2c(c1)CC(C(=O)N(C)CCO)Cn1c-2c(C2CCCCC2)c2ccc(C(=O)NS(=O)(=O)N(C)C)cc21 (stereo not shown),50 to 1000
3,COc1cccc2c1C=C(C(=O)N1C[C@@H](C)O[C@@H](C)C1)Cn1c-2c(C2CCCCC2)c2ccc(C(=O)O)cc21,50 to 1000
4,CNS(=O)(=O)NC(=O)c1ccc2c(C3CCCCC3)c3n(c2c1)CC(C(=O)N1C[C@@H](C)O[C@@H](C)C1)Cc1ccccc1-3 (stereo partly shown),50 to 1000
5,CNCCNC(=O)c1ccc2c(C3CCCCC3)c3n(c2c1)CC(C(=O)N1C[C@@H](C)O[C@@H](C)C1)=Cc1ccccc1-3,50 to 1000
6,COC(=O)c1ccc2c(C3CCCCC3)c3n(c2c1)CC(CO)=Cc1ccccc1-3,50 to 1000
7,C[C@@H]1CN(C(=O)C2=Cc3ccccc3-c3c(C4CCCCC4)c4ccc(C(=O)NC5(C(=O)Nc6ncc(-c7ccc(C(=O)O)cc7)s6)CCCC5)cc4n3C2)C[C@H](C)O1,50 to 1000
8,COC(=O)c1ccc2c(C3CCCCC3)c3n(c2c1)CNc1ccccc1-3,10 to 1000
9,O=C(O)/C=C/c1ccc2[nH]c(C3(NC(=O)c4ccc5c(C6CCCCC6)c6c7ccccc7ncn6c5c4)CCCC3)nc2c1,10 to 1000
10,COC(=O)c1ccc2c(C3CCCCC3)c3n(c2c1)CC(C(=O)N1CCOCC1)=Cc1ccncc1-3,1000 to 10000
11,COc1ccc2c(c1)CC(C(=O)N1C[C@@H](C)N[C@@H](C)C1)Cn1c-2c(C2CCCCC2)c2ccc(C(=O)NS(=O)(=O)N(C)C)cc21 (stereo partly shown),50 to 1000
12,COC(=O)c1ccc2c(C3CCCCC3)c3n(c2c1)CC(C(=O)OCc1ccccc1)=Cc1ccccc1-3 [drawing 223],1000 to 10000
13,COc1ccc2c(c1)C=C(C(=O)N(C)CCO)Cn1c-2c(C2CCCCC2)c2ccc(C(=O)NS(=O)(=O)N(C)C)cc21,50 to 1000
14,O=C(O)c1ccc2c(C3CCCCC3)c3n(c2c1)CC(C(=O)N1CCOCC1)Cc1cccnc1-3 (stereo not shown),1000 to 10000
15,COC(=O)c1ccc2c(C3CCCCC3)c3n(c2c1)CC(C(=O)N1CCCOCC1)=Cc1ccccc1-3,1000 to 10000
16,COC(=O)c1ccc2c(C3CCCCC3)c3n(c2c1)C(O)c1cc(Cl)ccc1-3 (stereo not shown),10 to 1000
17,COc1ccc2c(c1)C=C(C(=O)N1CCOCC1)Cn1c-2c(C2CCCCC2)c2ccc(C(=O)NS(=O)(=O)C3CC3)cc21,50 to 1000
18,CC(=O)N1CCn2c(c(C3CCCCC3)c3ccc(C(=O)NS(=O)(=O)N(C)C)cc32)-c2ccccc21,10 to 1000
19,CCN(CC)C(=O)C1=Cc2ccccc2-c2c(C3CCCCC3)c3ccc(C(=O)NS(=O)(=O)N(C)C)cc3n2C1,10 to 1000
20,O=C(O)c1ccc2c(C3CCCCC3)c3n(c2c1)CCCc1ocnc1-3,> 10000
21,COC(=O)c1ccc2c(C3CCCCC3)c3n(c2c1)CC(C(=O)N1C[C@@H](C)O[C@@H](C)C1)=Cc1cc(F)ccc1-3,1000 to 10000
22,C[C@@H]1CN(C(=O)C2=Cc3ccccc3-c3c(C4CCCCC4)c4ccc(C(=O)NS(=O)(=O)N(C)C)cc4n3C2)C[C@H](C)O1,10 to 1000
23,N#CC1C(=O)Cn2c(c(C3CCCCC3)c3ccc(C(=O)O)cc32)-c2ccccc21 (stereo not shown),> 10000
